The values that follow come from patent US10696972B2, “Method for improving learning” (St. Jude Children's Research Hospital, Inc., priority 2015, dated 2020).

One series has as its system A1R mRNA. Description: Cortical map plasticity in the ACx after passive tone exposure, A1R shRNA knock-down. It counts as in vivo, mouse. Particulars: adult WT mice, shRNA injected into auditory thalamus (MGv), passive exposure to a 9.8-kHz tone. As to the method:
(§1) Mice were housed in ventilated sound-proof chambers with ad libitum food and water and maintained on a 12:12 hour light:dark cycle. Mice were exposed to continuous sound stimulation for 5 to 14 days, consisting of repeated trains of tones. Each train consisted of 5 tones delivered at 5 Hz. A pure tone of certain frequencies (7 kHz, 7.9 kHz, 9.8 kHz, 11.4 kHz, or 16.4 kHz) was used. The tone duration was 50 ms with 5-ms cosine onset/offset ramps at 70-dB sound pressure level (SPL). Trains were separated by 1 s. Naïve (nonexposed) mice were housed in a similar fashion but received no sound stimulation.
Mice were anesthetized with sodium pentobarbital (50 mg/kg) and chlorprothixene (0.2 mg) followed by supplemental doses of sodium pentobarbital (15-25 mg/kg supplements as needed). Spike responses to sound stimulation were recorded from the primary (A1) ACx (depth, 350-420 μm from the pial surface) with Epoxylite-coated tungsten microelectrodes (2.0 MΩ at 1 kHz; FHC, Brunswick, Me.). Frequency response areas (FRAs) were measured with randomly presented tone pips of varying frequency (4.0-44.6 kHz in 0.1-octave increments, 20-ms duration, 5-ms raised cosine onset/offset ramps, 500-ms intertone interval) and level (0- to 70-dB SPL in 10-dB increments). Tones were generated by an electrostatic speaker [Tucker-Davis Technologies (TDT), Alachua, Fla.], which was placed 10 cm from the contralateral ear of the mouse. The ipsilateral ear was plugged with agar. Spike responses to tone pips were amplified with an RA4PA fiber optic preamplifier, filtered (high pass=250 Hz, low pass=5000 Hz), and digitized with an RZ6 real-time processor (TDT). The threshold for spike detection was set at a signal-to-noise ratio of 3:1. TDT System 3 software (OpenEx) controlled both sound stimulus generation and response acquisition and was used for data storage. Cortical maps in the A1 were generated from FRAs measured at 30 to 40 sites per mouse, each separated by 50 to 100 μm. FRAs were analyzed with TDT System 3 software (Open Explorer) for characteristic frequencies (CFs) collated in bins of 0.22 octaves. […]

In the next series the test system is Nt5e. Description: Cortical map plasticity in the ACx after passive tone exposure, Nt5e shRNA knock-down. As to conditions: mature WT mice, shRNA injected into auditory thalamus, exposed to 11.4 kHz. It counts as in vivo, mouse. As to the method:
as §1
Mice were anesthetized with sodium pentobarbital (50 mg/kg) and chlorprothixene (0.2 mg) followed by supplemental doses of sodium pentobarbital (15-25 mg/kg supplements as needed). Spike responses to sound stimulation were recorded from the primary (A1) ACx (depth, 350-420 μm from the pial surface) with Epoxylite-coated tungsten microelectrodes (2.0 MΩ at 1 kHz; FHC, Brunswick, Me.). Frequency response areas (FRAs) were measured with randomly presented tone pips of varying frequency (4.0-44.6 kHz in 0.1-octave increments, 20-ms duration, 5-ms raised cosine onset/offset ramps, 500-ms intertone interval) and level (0- to 70-dB SPL in 10-dB increments). […] Cortical maps in the A1 were generated from FRAs measured at 30 to 40 sites per mouse, each separated by 50 to 100 μm. […]

“scrambled (control) shRNA: scrambled control shRNA; coding DNA 5′-TACGTCCAAGGTCGGGCAGGAAGA-3′ (SEQ ID NO: 9) [reference compound]”: the ACx map plasticity result in the series on A1R mRNA is “no cortical map plasticity”.
As to “Nt5e shRNA (1264): shRNA against Nt5e, lentivector; coding DNA 5′-ACATTTGACCTCGTCCAATTAAAAGGGTC-3′ (SEQ ID NO: 12)”, the “percentage of sites with a CF of 11.4 kHz compared to naïve mice” value in the series with Nt5e was “significantly larger percentage of sites with a CF of 11.4 kHz”.
Still for that read-out and setting: the same measure for “Nt5e shRNA (1366): shRNA against Nt5e, lentivector; coding DNA 5′-GGAATCCATGTGGTGTACGATATTAACCG-3′ (SEQ ID NO: 13)”: “significantly larger percentage of sites with a CF of 11.4 kHz”.
For “A1R shRNA (123): shRNA against A1R mRNA, lentivector; coding DNA 5′-CGATGCTACCTTCTGCTTCATCGTATCCC-3′ (SEQ ID NO: 10)”, the ACx map plasticity result with A1R mRNA is listed as “sufficient to induce ACx map plasticity”.
With “A1R shRNA (789): shRNA against A1R mRNA, lentivector; coding DNA 5′-CCAGAAACCCAGCATCCTCATCTACATTG-3′ (SEQ ID NO: 11)”, the ACx map plasticity entry in the series with A1R mRNA was “sufficient to induce ACx map plasticity”.
